Laboratory results reported in patent US6303761A, “Triaminepentaacetic acid compound and paramagnetic metal complex prepared from using the compound as ligand” (Department of Health The Executive Yuan, Republic of China, priority 1999, dated 2001).
Where “and” joins values, the source holds several entries; their conditions need not be identical. Equal entries are not always repeated. Where two headings read alike, the source gives them in different places.

Assays:
[1] = format: physicochemical
liver = experiment: MR imaging, liver enhancement, healthy rat; format: in vivo; details: 0.1 mmol/kg
Procedure: (§1) Sodium pentobarbital was injected into the tail veins of […] rats (which have a healthy liver or tumorous liver) in a dosage of 40-50 mg/kg. The rats were placed on the head coil of an 1.5 T magnetic resonance imaging instrument. The T1-weighted (TR/Te, 15/6.1 msec) image was obtained by turbo field echo with the number of signal average. The field of view (FOV), the cross-sectional thickness, and the image matrix were 22 cm, 4 mm, and 128×256 respectively.
(§2) Before injecting the contrast agent, a set of T1-weighted baseline images were taken. In the first five minutes, the images were taken at a very short time interval in order to evaluate the dynamic enhancement condition. Afterwards, the images were taken every 10, 20, 30, 40, 50, and 60 minutes in order to observe the continuous enhancement effect.
(§3) By means of the computer software contained in the MRI instrument, the region of interest (ROI) can be determined by the operator. The signal intensities (SI) of liver, phantom, and kidney were measured. The enhancement percentage of an organ (liver or kidney) and the enhancement percentage of liver relative to kidney were calculated by the following equations. The statistical method used was Wilcoxon Signed Rank Test. [formula] [formula]

kidney = experiment: MR imaging, kidney enhancement, healthy rat; format: in vivo; details: 0.1 mmol/kg
Procedure: as §1, §2, §3

[2] = for log K [GdL]/[Gd][L]: 25.0 ± 0.1° C., aqueous Me4 NNO3, I = 0.10 mol dm^-3
[3] = in vivo; cited from earlier work
[4] = Relaxivity R1 and its pH dependence
[5] = Protonation constants of the organic ligands (potentiometric titration, program PKAS); format: physicochemical; details: for pKa: aqueous me4nno3, 25.0 ± 0.1° C., aqueous Me4 NNO3, I = 0.10 mol dm^-3
Procedure: The ionic strength was 0.10 mol dm^-3 Me4 NNO3 ((CH3)4 NNO3). […] The titrant used was 0.1 mol dm^-3 NaOH with a titration amount of 0.005 ml/time.

[6] = Thermodynamic and conditional stability constants of the Ca^2+ complexes (potentiometric titration, program BEST); format: physicochemical; details: 25.0 ± 0.1° C., aqueous Me4 NNO3, I = 0.10 mol dm^-3
Procedure: (§4) The pH electrode was calibrated using two standard buffer solutions with pH 7.0±0.05 and pH 4.0±0.05 respectively. The ionic strength was 0.10 mol dm^-3 Me4 NNO3 ((CH3)4 NNO3). […] The titrant used was 0.1 mol dm^-3 NaOH with a titration amount of 0.005 ml/time.
(§5) (1) Direct Potentiometric Titration: The metal ion and ligand is mixed in 1:1 molar ratio.
(§6) (2) Ligand-ligand Competition Titration: The metal ion, ligand, and EDTA is mixed in 1:1:1 molar ratio.
(§7) M: metal ion, L: organic ligand, ML: metal complex The conditional stability constant is defined by equation (2): [formula]
(§8) The relationship between the conditional stability constant and the thermodynamic stability constant is defined by equation (3): [formula]
(§9) K2^H [H^+ ]^2 + . . . }^-1 =KthermαH

[7] = Thermodynamic and conditional stability constants of the Zn^2+ complexes (potentiometric titration, program BEST); format: physicochemical; details: 25.0 ± 0.1° C., aqueous Me4 NNO3, I = 0.10 mol dm^-3
Procedure: as §4, §5, §6, §7, §8, §9

[8] = Thermodynamic and conditional stability constants of the Cu^2+ complexes (potentiometric titration, program BEST); format: physicochemical; details: 25.0 ± 0.1° C., aqueous Me4 NNO3, I = 0.10 mol dm^-3
Procedure: as §4, §5, §6, §7, §8, §9

[9] = Selectivity constant of the ligand for Gd^3+ over Zn^2+; format: physicochemical
[10] = Selectivity constant of the ligand for Gd^3+ over Cu^2+; format: physicochemical
[11] = Selectivity constant of the ligand for Gd^3+ over Ca^2+; format: physicochemical
[12] = Species distribution of the ligands at various pH values (SPE, SPEPLOT); format: physicochemical; details: 7.0×10^-3 mol dm^-3 system
Description: The average difference between observed and calculated -log[H^+ ] was <0.04 throughout all titrations.
When pH=7.0, the concentration of [H2 L]^3- is the maximum (97.5%). In the pH 3-5 range, the dominant species is the third protonated species [H3 L]^2-. When pH=3.7, the concentration of [H3 L]^2- is the maximum (87.75%). […] When pH=9.8, the concentration of [HL]^4- is the maximum (77.5%). In the pH 2-3 range, the dominant species is the fourth protonated species [H4 L]^-. When pH=2.3, the concentration of [H4 L]^- is the maximum (60.9%). In the pH range greater than 11, the dominant species is the deprotonated species [L]^5-.
When pH=2.7, the concentration of [H4 L]^- is the maximum (55.9%). In the pH 3.5-7 range, the dominant species is the third protonated species [H3 L]^2-. When pH=5, the concentration of [H3 L]^2- is the maximum (97.7%). In the pH 7-9 range, the dominant species is the second protonated species [H2 L]^3-. When pH=8.1, the concentration of [H2 L]^3- is the maximum (86.5%). […] When pH=9.9, the concentration of [HL]^4- is the maximum (71.6%). In the pH range greater than 12, the dominant species is the deprotonated species [L]^5-. In the pH range less than 2, the dominant species is the totally protonated species [H5 L].
When pH=2.8, the concentration of [H4 L]^- is the maximum (45.9%). In the pH 3.5-7.5 range, the dominant species is the third protonated species [H3 L]^2-. When pH=5.2, the concentration of [H3 L]^2- is the maximum (99.0%). In the pH 8-9.5 range, the dominant species is the second protonated species [H2 L]^3-. When pH=8.6, the concentration of [H2 L]^3- is the maximum (78.8%). In the pH 9.5-11 range, the dominant species is the first protonated species [HL]^4-. When pH=10.1, the concentration of [HL]^4- is the maximum (67.2%). In the pH range greater than 12, the dominant species is the deprotonated species [L]^5-. In the pH range less than 2, the dominant species is the totally protonated species [H5 L].

pM value, Gd^3+ = details: pH 7.4, TL 1.1×10^-5, TM 1.0×10^-6 mol dm^-3
pM value, Ca^2+ = details: pH 7.4, TL 1.1×10^-5, TM 1.0×10^-6 mol dm^-3
pM value, Zn^2+ = details: pH 7.4, TL 1.1×10^-5, TM 1.0×10^-6 mol dm^-3
pM value, Cu^2+ = details: pH 7.4, TL 1.1×10^-5, TM 1.0×10^-6 mol dm^-3

## O=C([O-])CN(CCN(CC(=O)[O-])CC(=O)[O-])CCN(CC(=O)[O-])CC(=O)[O-].[Gd+3] [[Gd(DTPA)]^2-]
[1]; pH 7.4
  modified selectivity constant log K sel': 7.07 and 7.04
liver
  time to maximum liver enhancement: ≤ 1 min
liver; 30 minutes
  liver enhancement after 30 minutes: 24±7%
liver; within 1 minute
  maximum liver enhancement: 57±9%
kidney
  time to maximum kidney enhancement: 1 min
kidney; 30 minutes
  kidney enhancement at 30 minutes: 109±14%
[2]
  log K [GdL]/[Gd][L]: 22.46
[2]; pH 4
  conditional stability constant (log Kcond): 11.25
[2]; pH 7.4
  stability constant larger than that of [Gd(DTPA-BMA)] by: 3.2
  stability constant under physiological conditions (pH 7.4): 22.46
[2]; pH 11
  stability constant (log KML) larger than that of [Gd(DTPA-BMA)] by: 5.5
[3]
  LD50: 5.6 mmol/kg
[4]; pH 7.5 ± 0.1
  Relaxivity R1: 3.71 dm^3 mmol^-1 s^-1 and 3.71 ± 0.05 dm^3 mmol^-1 s^-1
[4]; pH not given
  Relaxivity R1 (conclusion): 3.70 dm^3 mmol^-1 s^-1

## O=C(O)CN(CCCN(CC(=O)O)CC(=O)O)CCN(CC(=O)O)CC(=O)O [TTDA, 3,6,10-tri(carboxymethyl)-3,6,10-triazadodecanedioic acid]
[5]
  basicity, Σ PKa: 27.44
[5]; read-out: first protonation constant log K1^H, [HL]/[L][H]
  pKa: 10.6
[5]; read-out: fourth protonation constant log K4^H, [H4 L]/[H3 L][H]
  pKa: 2.8
[5]; read-out: second protonation constant log K2^H, [H2 L]/[HL][H]
  pKa: 8.92
[5]; read-out: third protonation constant log K3^H, [H3 L]/[H2 L][H]
  pKa: 5.12
[6]
  log K [CaHL]/[CaL][H]: 6.06
[7]
  log K [ZnHL]/[ZnL][H]: 7.41
[8]
  log K [CuHL]/[CuL][H]: 5.52
  log K [CuL]/[Cu][L]: 19.31
[9]
  selectivity constant log K(Gd/Zn): 4.18
[10]
  selectivity constant log K(Gd/Cu): 3.46
[11]
  selectivity constant log K(Gd/Ca): 8.32
[1]; pH 7.4, plasma concentrations of Ca^2+, Cu^2+ and Zn^2+
  modified selectivity constant log K sel': 8.44
[12]
  maximum concentration of first protonated species [HL]^4-: 77.5%
  maximum concentration of fourth protonated species [H4 L]^-: 60.9%
  maximum concentration of second protonated species [H2 L]^3-: 97.5%
  maximum concentration of third protonated species [H3 L]^2-: 87.75%
  pH of maximum concentration of [H2 L]^3-: 7.0 pH
  pH of maximum concentration of [H3 L]^2-: 3.7 pH
  pH of maximum concentration of [H4 L]^-: 2.3 pH
  pH of maximum concentration of [HL]^4-: 9.8 pH
  pH range in which [H2 L]^3- is dominant: 5-9 pH
  pH range in which [H3 L]^2- is dominant: 3-5 pH
  pH range in which [H4 L]^- is dominant: 2-3 pH
  pH range in which [HL]^4- is dominant: 9-10.5 pH
  pH range in which deprotonated species [L]^5- is dominant: greater than 11 pH
[2]
  log K [GdL]/[Gd][L]: 22.77
[2]; pH 7.4
  conditional stability constant log KGdL': 18.04
pM value, Gd^3+
  pM (Gd^3+): 17.03
pM value, Ca^2+
  pM (Ca^2+): 9.73
pM value, Zn^2+
  pM (Zn^2+): 13.22
pM value, Cu^2+
  pM (Cu^2+): 13.58
